Experiments:
RAW 264.7 cells = assay: MTT cell viability; assay type: cell-based, murine; details: 24 h, 5–200 μM tested
Method: (§1) RAW 264.7 cells were cultured in DMEM containing 10% FBS and maintained in a humidified incubator set at 37 °C with 5% CO2. For all following assays, cells were subcultured at a density of 40 000 cells per well in 96 well culture plates with 200 μL of the above-described culture medium. After 24 h, cells were incubated with ORV, GN, and their glucuronide metabolites (5–200 μM) in RPMI medium supplemented with glutamine (4 mM) in the presence or absence of LPS (0.1 μg/mL) (200 μL final volume per well). For MTT, NO, ROS, IL-1β, and TNF-α (n = 4), each experiment was performed in triplicate separately.
The MTT colorimetric assay was performed to assess the cell viability of cells after being treated with ORV, GN, and their glucuronide metabolites. After 24 h of treatment, RAW 264.7 cells were incubated with 0.5 mg/mL MTT during 3 h at 37 °C. The formazan crystals formed were dissolved with 100 μL of dimethyl sulfoxide (DMSO), and the plate was then incubated in the darkness for 30 min. Finally, the absorbance was measured at 595 nm using a microplate reader (FLUOstar Optima, BMG Labtech).

[1] = tested on: NO production in LPS-stimulated RAW 264.7 cells; assay: NO measurement (Griess) in LPS-stimulated macrophages; assay type: cell-based, murine; details: between 25 and 50 μM (summary statement)
Method: as §1
After 24 h of treatment of RAW 264.7 cells with ORV, GN, and their glucuronide metabolites, 70 μL of supernatant was mixed with 70 μL of Griess solution. After 15 min in darkness, the absorbance was measured at 550 nm using a microplate reader (FLUOstar Optima, BMG Labtech). A calibration curve of NO2 (0–100 μM) was used for quantification. Data were expressed as NO production (μM) compared to cells treated only with LPS (positive control).

[2] = tested on: ROS production in LPS-stimulated RAW 264.7 cells; assay: Intracellular ROS measurement (DCFH2-DA) in LPS-stimulated macrophages; assay type: cell-based, murine
Method: as §1
Generation of intracellular ROS in cells was analyzed using the fluorometric probe DCFH2-DA. After 24 h of treatment with GN, ORV, and their glucuronide metabolites, cells were washed with phosphate-buffered saline (PBS) and then 150 μL of DCFH2-DA (10 μM) was added. After 30 min at 37 °C, the fluorescence intensity was quantified using a microplate reader (FLUOstar Optima, BMG Labtech) with a wavelength of excitation and emission of 485 and 520 nm, respectively. All experiments were performed in darkness. Results were expressed as ROS production (fluorescence intensity expressed as arbitrary units) compared to cells treated only with LPS (positive control).

[3] = tested on: IL-1β production in LPS-stimulated RAW 264.7 cells; assay: IL-1β production (ELISA) in LPS-stimulated macrophages; assay type: cell-based, murine; details: t-GN 10 and 50 μM, its glucuronides 50 and 200 μM, 24 h
Method: as §1
(§2) At 24 h after seeding, RAW 264.7 cells were exposed to LPS (0.1 μg/mL) in the absence or presence of ORV, GN (10 and 50 μM), and their metabolites (50 and 200 μM). After 24 h of exposure, IL-1β and TNF-α concentrations were measured in culture media supernatants by ELISA sandwich assay following the instructions of the manufacturer.

[4] = tested on: TNF-α production in LPS-stimulated RAW 264.7 cells; assay: TNF-α production (ELISA) in LPS-stimulated macrophages; assay type: cell-based, murine; details: t-GN 10 and 50 μM, its glucuronides 50 and 200 μM, 24 h
Method: as §1, §2

[5] = set-up: method as in PMID 25939395; details: rats, intravenous and oral administration ref 2; cited from earlier work
BV-2 microglial cells = tested on: BV-2 microglial cells; set-up: method as in PMID 23807809; details: 5 and 10 μM, BV-2 microglial cells ref 36; cited from earlier work

With Oc1cc(O)cc(/C=C/c2c(O)cccc2O)c1 [t-GN, trans-2′,3,5,6′-tetrahydroxystilbene] the “concentration from which toxic (MTT)” value (RAW 264.7 cells) was at least 100 µM, the “decrease of NO production” value [1] was “more than 50%” and the “counteracting ROS production” value ([2]; GN, concentration not stated (5–50 μM tested), 24 h, LPS) was “more than 55%”. The “decrease of ROS production” value ([2]; between 25 and 50 μM (summary statement)) was “more than 50%”, the “reduction of IL-1β” value [3] was “ineffective” and the “reduction of TNF-α” value [4] was “ineffective”. The calculated bioavailability [5] was 6.6% and the cytotoxic effect (BV-2 microglial cells) was “no cytotoxic effect”.

Source: paper PMC9585577, “Oxyresveratrol and Gnetol Glucuronide Metabolites: Chemical Production, Structural Identification, Metabolism by Human and Rat Liver Fractions, and In Vitro Anti-inflammatory Properties” (Journal of Agricultural and Food Chemistry, 2022)
